Reference: patent US6083915A, “Method for treating liver cancer” (Biomeasure, Inc., priority 1991, dated 2000)

Tested on: M5123 hepatoma
Format: in vivo
Conditions: for % Test/Control / Tumor Weight (mg) Day 18: 100 μg/inj., s.c., b.i.d., q.d. 1-20; for % Test/Control: day 18; for Tumor Weight (mg) Day 18: mean ± s.e.m.
Source text: The M5123 hepatoma cells, obtained from Dr. H. P. Morris at the National Cancer Institute, were induced in the Buffalo strain of rats by ingestion of N-(2-fluorenyl-phthalamic acid) and established in serial transplantation. Implantation of the M5123 hepatoma cells in an immunodeficient athymic mouse reproducibly results in progressively growing, lethal tumor.
In contrast to the subrenal capsule assay, in the subcutaneous assay, tumor xenografts are implanted subcutaneously, rather than under the subrenal capsule, and treatment can be initiated at any selected time after the implantation.
In this assay, tumors were implanted subcutaneously in the right flank of athymic female mice and test compounds, BIM-26159, BIM-26187, BIM-26189, BIM-26218, BIM-26223 and BIN-26228, and control were injected subcutaneously in the left flank. For the structures of BIM-26159, BIM-26187, BIM-26189, see "Summary of the Invention" above. The structures of BIM-26223 and BIM-26228 are as follows:
Response of an implanted tumor to the treatment was monitored as follows. The length and width of the tumor were first measured using sensitive Vernier calipers. Tumor weight was then calculated based on the measurements as follows: [length (mm)×width (mm)^2 ]/2 mg. In addition to tumor size or weight, this assay system permits the parameter of "lag time", i.e., the effect of early treatment on the growth potential of tumors to reach a certain size.
In one experiment, thirty two mice were implanted subcutaneously with M5123 hepatoma xenografts on day 0 and randomized into four groups of eight animals per group. The bombesin analog BIM-26159 was administered at 250, 50, 10 μg per injection, S.C., b.i.d.,q.d. 1-18.
In another experiment, we tested the activity of five bombesin analogs, i.e., BIM-26187, BIM-26189, BIM-26218, BIM-26223 and BIM-26228, over a period of 18 days. Forty mice were implanted s.c. with M5123 hepatoma xenografts on day 0, and the randomized into ten animals in the control group and six animals per test group. All compounds were administered at 100 μg per injection, s.c., b.i.d., q.d. 1-18.

Molecule | % Test/Control [%] | Tumor Weight (mg) Day 18 [mg] | effect on growth of the tumor cells (in words) (100 μg per injection, over 18 days)
CC(C)C[C@H](NC(=O)[C@H](CC(C)C)NC(=O)[C@H](Cc1c[nH]cn1)NC(=O)CNC(=O)[C@@H](NC(=O)[C@H](C)NC(=O)[C@H](Cc1c[nH]c2ccccc12)NC(=O)[C@H](CCC(N)=O)NC(=O)[C@H](N)Cc1ccccc1)C(C)C)C(N)=O [BIM-26187, D-Phe-Gln-Trp-Ala-Val-Gly-His-Leu-Leu-NH2] | 83 | 482.8 ± 175.0 | –
D-Phe-Gln-Trp-Ala-Val-Gly-CHxAla-Leu-NH2 [BIM-26228] | 115 | 667.2 ± 181.6 | slightly stimulated growth
